One test has as its system MSC. Briefly: RT-qPCR relative gene expression in untreated or preconditioned MSC. The test is classed as cell-based, mouse. The conditions noted are these: for hgf transcripts / pdgf transcripts / vegf-α transcripts: then H2O2 4 h, vs untreated MSC/H2O2; for bcl2 gene expression level: then H2O2, vs H2O2-treated MSC. Here is the method: FIG. 8: (A) 48 hours after the seeding step in complete medium, MSC were subjected to H2O2-induced oxidative stress during 4 hours in minimal medium with serum deprivation. Pharmacological preconditioning of MSC using PPARβ/δ agonist or antagonist was performed 24 hours before oxidative stress exposure. At the end of the protocol, relative gene expression was analyzed measuring transcript amounts by RT-qPCR. mRNA expression levels in untreated or preconditioned MSC exposed to an oxidative stress were assessed by RT-qPCR for (B) vegf: data (mean±SEM) were compared using ANOVA and the Tukey's post hoc for multiple comparisons (normality test passed). […] P values were ns versus H2O2, n=7 for control n=8, GW0742 0.1 μM n=7, GW0742 1 μM n=9, GSK0660 0.1 μM n=6 and GSK0660 1 μM n=9; and (D) for pdgf: data (mean±SEM) were compared using ANOVA and the Tukey's post hoc for multiple comparisons (normality test passed). […] For statistical analysis comparisons were made to the untreated MSC/H2O2 group.
MSCs were pre-incubated for 24 hours with either PPARβ/δ antagonists GSK3787 (0.1 and 1 μM), PPARβ/δ inverse agonist GSK0660 (0.1 and 1 μM) or PPARβ/δ agonist GW0742 (0.1, 1 and 5 μM) before to be washed with PBS and used in co-cultures experiments or injected in the myocardium. When indicated, MSCs were labeled with the fluorescent cell-tracer CM-Dil (Molecular Probes). MSC were collected and suspended in 5 mL PBS containing CM-Dil (10^7 cells/10 μg) prior to be incubated at 37° C. for 5 minutes followed by 15 minutes at 4° C., in the dark. Labeled MSCs were washed 2 times in PBS, resuspended in PBS and maintained at 4° C. prior to be injected in the myocardium.
Isolation of total RNA for each sample was performed using the RNeasy Mini Kit (Qiagen, Courtaboeuf). The quantity and quality of the RNA extracted were defined by using a NanoDrop ND-1000 spectrophotometer (NanoDrop ND, Thermo Fisher Scientific). Then, using the SensiFAST cDNA synthesis kit (Bioline), cDNA was synthesized by reverse transcribing 500 ng RNA into cDNA. Using the SensiFAST™ SYBR (Bioline) and a LightCycler® 480 Detection system Quantitative following manufacturer's recommendations, PCR were performed. Primers specific for angpl4, pdk4, bcl2, hgf, pdgf, nrf2 were designed using the Primer3 software. Data were normalized to the housekeeping gene ribosomal protein S9 (RPS9) and the values were expressed as relative mRNA level of specific gene expression as calculated using the 2^−ΔCt method.

The test system of the next test is H9c2 cardiomyocytes. Briefly: Transwell co-culture of MSC with H9c2 exposed to H2O2, specific DNA fragmentation in H9c2. To be noted: vs naive MSC. The test is classed as cell-based, rattus norvegicus. Here is the method: FIG. 7: Increased anti-apoptotic effects of PPARβ/δ-primed MSC on cardiomyocytes. (A) After 24 hours of MSC pharmacological preconditioning using PPARβ/δ agonist, cells were co-cultured using transwells (upper chamber) with H9c2 (lower chamber). Both cultures were exposed to 4 hours of 350 μM of H2O2 in minimal medium (serum deprivation). At the end of the protocol, specific DNA fragmentation was quantified in H9c2 cells and values were compared with those obtained for co-cultures with naive MSC or MSC pre-treated with PPARβ/δ antagonists (GSK0660 or GSK03787) and exposed to 350 H2O2μM (B, C, D) Scatter dot plot and bars were presented for specific DNA fragmentation quantified in H9c2 at the end of the protocols. Data (mean±SD for each group of treatment) were normalized by values obtained with naive MSC/H2O2 and compared using Kruskal-Wallis (Dunn's post hoc test). (B): data were obtained using the condition 1 protocol. (C): the condition 2 protocol P was followed and p value was noted **** for p<0.0001 (MSC, n=16 independent cultures vs MSC/H2O2, n=18). For the data obtained with condition 3 protocol (D), p value was noted * for p=0.0436 (MSC+1 μM GSK0660/H2O2, n=6 vs MSC/H2O2, n=10).
H9c2, rattus norvegicus cardiomyocytes, were cultured in Dulbecco's modified Eagle's medium (DMEM), supplemented with 10% fetal bovine serum (FBS), 100 Units/mL penicillin, and 100 μg/mL streptomycin. To induce apoptosis, H9c2 were cultured in a minimal medium (without FBS) containing 350 μM of H2O2 during 4 hours. In order to evaluate the effect of MSCs on cardiomyocytes, a co-culture assay was designed using the transwell system to avoid cell-cell contact. 15,000 cardiomyocytes (lower part) were plated per well of a 12-well dish with or 15,000 MSC (upper part) in presence of 350 OA of H2O2. Two different protocols of co-culture were performed. In protocol 1, H9c2 and co-cultured MSC were exposed to H2O2(with serum deprivation). In protocol 2, H9c2 were exposed to H2O2 in minimal medium during 4 hours and after a wash, cells were co-cultured in complete medium with MSC. In protocol 3, H9c2 were cultured in presence of H2O2 during 4 hours in regular medium deprived in serum, which was continued for an extra 1 hour. Then the co-culture of H9c2 with MSC was performed in complete medium for 1 hour. At the end of all protocols, H9c2 were recovered for apoptosis and RT-qPCR analysis.
DNA fragmentation was quantified in vitro on cell lysates with an enzyme-linked immunosorbent assay kit (Cell Death ELISA; Roche Diagnostics) designed to measure of histone-complexed DNA fragments (mono- and oligonucleosomes) out of the cytoplasm of cells after the induction of apoptosis.
To determine the role of PPARβ/δ on MSC-induced protective effect on cardiomyocytes we designed and developed three protocols in order to mimic the stress received by MSC when transplanted into infarcted tissues. The first protocol consisted in co-culturing naive or primed MSC with H9c2 exposed to 350 μM of H2O2 for 4 hours using transwell. The second protocol consisted in exposing […] μM of H2O2 for 4 hours before to co-culture them with naive or primed MSC in a complete medium. The third protocol consisted in exposing H9c2 to 350 μM of H2O2 for 4 hours followed by serum deprivation for 1 hour before to co-culture them with naive or primed MSC in a complete medium (FIG. 7A).

Where [1] appears, read: MSC pretreated 24 h with 0.1 μM.
Where [2] appears, read: protocol 1: MSC pretreated 24 h with 1 μM, co-cultured with H9c2 under 350 μM H2O2 4 h.
Setting [3] is: protocol 2: H9c2 exposed to 350 μM H2O2 4 h, then co-culture in complete medium with MSC pretreated with 1 μM.
[4] abbreviates: protocol 3: H9c2 350 μM H2O2 4 h, serum deprivation 1 h, then co-culture in complete medium with MSC pretreated with 1 μM.
Where [5] appears, read: pretreatment of cultured MSC (data not shown).

For the compound `COC(=O)c1sccc1S(=O)(=O)Nc1ccc(Nc2ccccc2)cc1OC` [GSK0660], in the test on MSC (setting [1]), the hgf transcripts result is “A similar tendency was observed”, the pdgf transcripts entry is “A similar tendency was observed” and the vegf-α transcripts result is given as “significantly decreased”. Further, in the test with MSC (MSC pretreated 24 h with 1 μM), the hgf transcripts result was “A similar tendency was observed”, the pdgf transcripts result is listed as “A similar tendency was observed”, the vegf-α transcripts entry is on record as “significantly decreased” and the “bcl2 gene expression level” value is “significantly reduced bcl2 gene expression level”. Besides, the “Specific DNA fragmentation in H9c2 (anti-apoptotic effect of MSC)” value (shortened to “Specific DNA fragmentation in H9c2”) in the test with H9c2 cardiomyocytes (setting [2]) is given as “lose their capacity to protect cardiomyocytes from apoptosis”. Also, in the test with H9c2 cardiomyocytes (setting [3]), the “Specific DNA fragmentation in H9c2” value was “did not change MSC protective properties”. Besides, the “Specific DNA fragmentation in H9c2” value in the test with H9c2 cardiomyocytes (setting [4]) is on record as “lose their capacity to protect cardiomyocytes from apoptosis”.

As for `Cc1cc(SCc2sc(-c3ccc(C(F)(F)F)c(F)c3)nc2C)ccc1OCC(=O)O` [GW0742], in the test on MSC (setting [1]), the hgf transcripts entry is listed as “did not modify”, the vegf-α transcripts entry is “did not modify” and the “bcl2 gene expression level” value is listed as “significant increase in bcl2 gene expression level”. In the test on MSC (MSC pretreated 24 h with 1 μM), the hgf transcripts entry is on record as “did not modify”, the pdgf transcripts entry is reported as “significantly increased the expression of pdgf” and the vegf-α transcripts entry is recorded as “did not modify”. Further, in the test with MSC (setting [5]), the “angpl4 target gene expression level” value is listed as “increased expression levels” and the “pdk4 target gene expression level” value is recorded as “increased expression levels”. Moreover, the “Specific DNA fragmentation in H9c2” value in the test on H9c2 cardiomyocytes (protocol 1: MSC pretreated 24 h with 0.1 μM, co-cultured with H9c2 under 350 μM H2O2 4 h) is on record as “exhibited a higher anti-apoptotic effect”. Also, the “Specific DNA fragmentation in H9c2” value with H9c2 cardiomyocytes (setting [2]) is on record as “exhibited a higher anti-apoptotic effect”. Also, the “Specific DNA fragmentation in H9c2” value in the test on H9c2 cardiomyocytes (setting [3]) is on record as “induced a significant protective effect”. Besides, in the test with H9c2 cardiomyocytes (setting [4]), the “Specific DNA fragmentation in H9c2” value is given as “induced a significant protective effect”.

For the origin of these results see US20240091267A1, “PRE-TREATMENT OF MSC WITH PPARB/DELTA AGONIST FOR TREATMENT OF ISCHEMIA-REPERFUSION INJURY” (Universite de Montpellier, priority 2020, published 2024).
